Experiments:
[1] = test system: HIV-1Bal (R5-tropic); assay: Test for inhibition of macrophage infection; type: cell-based
Excerpt: (§1) In order to carry out cytotoxicity and infection-inhibiting activity tests, three cell types and two viral strains were used. This involved a laboratory strain HIV-1NDK(X4-tropic) which was amplified by lymphocytes originating from healthy donors, and a primary strain HIV-1Bal (R5-tropic) which was amplified by macrophages.
(§2) As regards the cell types, macrophages and dendritic cells were obtained from peripheral blood mononuclear cells. In addition, lymphocytes were provided.
(§3) As regards the inhibitory activity, the macrophages or the dendritic cells are incubated with viral particles of the abovementioned strains, HIV-1NDK(X4-tropic) or HIV-1Bal (R5-tropic), in the presence and absence of the terpenic compositions. The cells are subsequently washed and then put back in culture and, finally, centrifuged. The supernatants are then recovered and the viral particles are lyzed in order to measure the concentration of a viral protein using the ELISA assay. In this way, the inhibitory activity of the terpenic compositions is evaluated by comparison between the nontreated infected cells and the treated infected cells.
(§4) Next, the inhibition of the infection of the macrophages was evaluated. Since the latter are potential reservoirs for HIV, it is a question of measuring the ability of the terpenic composition to prevent infection of the macrophages.

[2] = test system: HIV-1NDK (X4-tropic); assay: Test for inhibition of macrophage infection; type: cell-based
Excerpt: as §1, §2, §3, §4

[3] = test system: HIV-1NDK (X4-tropic); assay: Test for inhibition of transfer from dendritic cells to T lymphocytes; type: cell-based
Protocol: (§5) In addition, tests for transfer of the virus, from the dendritic cells to autologous T lymphocytes, i.e. T lymphocytes originating from the same stem cells, were carried out.
(§6) For this, dendritic cells are transferred and incubated with each of the terpenic compositions and the virus. Next, after washing, autologous T lymphocytes are added in a ratio of one dendritic cell to five T lymphocytes. The concentration of viral proteins of the abovementioned type is then evaluated by means of the ELISA assay.
(§7) Dendritic cells express, at their surface, an adhesion protein, DC-SIGN, which forms a viral receptor capable of capturing HIV and of facilitating the infection of permissive cells via a “trans-infection” mechanism. This is because the DC-SIGN receptor can interact with the envelope of HIV and hold the virion in an infectious state so as to subsequently transmit it to permissive T lymphocytes in the adjacent lymph nodes.

[4] = test system: HIV-1Bal (R5-tropic); assay: as above; type: cell-based
Protocol: as §5, §6, §7

[5] = test system: HIV-1NDK (X4-tropic); assay: Test for inhibition of dendritic cell infection; type: cell-based
Excerpt: as §1, §2, §3
(§8) Furthermore, tests were carried out on the inhibition of dendritic cell infection, since these cells are involved in HIV transmission at the mucosal level.

[6] = test system: HIV-1Bal (R5-tropic); assay: Test for inhibition of dendritic cell infection; type: cell-based
Excerpt: as §1, §2, §3, §8

[7] = test system: X4 strains; assay: Direct activity on X4 strains (noninfectious / detergent activity); set-up: species or system HIV-1; conditions: diluted to 1/100th
[8] = diluted to 1/200th, listed as Third
[9] = diluted to 1/200th, listed as third preparation
[10] = diluted to 1/2000th, listed as Fourth
[11] = diluted to 1/2000th, listed as fourth preparation

## zinc aceto-salicylo-borneolate [Fifth preparation]
[1]; diluted to 50%
  inhibition of infection of macrophages with strains of the R5-tropic group: more than 50%

## zinc ascorbo-camphorate [Third preparation]
[2]; [8]
  inhibition of macrophage infection, HIV-1NDK (X4-tropic): >95%
[2]; [9]
  inhibition of macrophage infection, HIV-1NDK (X4-tropic): more than 95%
[2]; diluted to 1/2000th
  inhibition of macrophage infection, HIV-1NDK (X4-tropic): the same results
[1]; [8]
  inhibition of macrophage infection, HIV-1Bal (R5-tropic): >95%
[1]; [9]
  inhibition of macrophage infection, HIV-1Bal (R5-tropic): more than 95%
[1]; diluted to 1/2000th
  inhibition of macrophage infection, HIV-1Bal (R5-tropic): the same results
[3]; [8]
  inhibition of transfer from dendritic cells to T lymphocytes, HIV-1NDK (X4-tropic): >95%
[3]; [9]
  inhibition of transfer from dendritic cells to T lymphocytes, HIV-1NDK (X4-tropic): more than 95%
[4]; [8]
  inhibition of transfer from dendritic cells to T lymphocytes, HIV-1Bal (R5-tropic): >95%
[4]; [9]
  inhibition of transfer from dendritic cells to T lymphocytes, HIV-1Bal (R5-tropic): more than 95%
[4]; diluted to 1/2000th
  inhibition of transfer from dendritic cells to T lymphocytes, HIV-1Bal (R5-tropic): the same results
[5]; [8]
  inhibition of dendritic cell infection, HIV-1NDK (X4-tropic): >95%
[5]; [9]
  inhibition of dendritic cell infection, HIV-1NDK (X4-tropic): more than 95%
[6]; [8]
  inhibition of dendritic cell infection, HIV-1Bal (R5-tropic): >95%
[6]; [9]
  inhibition of dendritic cell infection, HIV-1Bal (R5-tropic): more than 95%
[7]
  detergent activity with respect to the X4 strains: has a detergent activity
  rendering the X4 strains noninfectious: capable of rendering the X4 strains noninfectious

## zinc cinnamo-camphorate [Fourth preparation]
[2]; [10]
  inhibition of macrophage infection, HIV-1NDK (X4-tropic): >90%
[2]; [11]
  inhibition of macrophage infection, HIV-1NDK (X4-tropic): the same results
[1]; [10]
  inhibition of macrophage infection, HIV-1Bal (R5-tropic): >90%
[1]; [11]
  inhibition of macrophage infection, HIV-1Bal (R5-tropic): the same results
[3]; diluted to 1/2000th
  inhibition of transfer from dendritic cells to T lymphocytes, HIV-1NDK (X4-tropic): 0%
[4]; diluted to 1/2000th
  inhibition of transfer from dendritic cells to T lymphocytes, HIV-1Bal (R5-tropic): 0%
[5]; diluted to 1/2000th
  inhibition of dendritic cell infection, HIV-1NDK (X4-tropic): 0%
[6]; diluted to 1/2000th
  inhibition of dendritic cell infection, HIV-1Bal (R5-tropic): 0%

From patent US8198321B2, “Anti-microorganism terpenic composition” (priority 2006, dated 2012)
